Reference: patent US11279687B2, “Compounds and compositions for the inhibition of NAMPT” (Valo Health, Inc., priority 2010, dated 2022)
Read-outs that look alike come from different tables or passages of the source.

How the values were obtained:
NAMPT = NAMPT (Homo sapiens (Human), UniProt P43490); test: NAMPT biochemical inhibition assay (NMN quantified by mass spectrometry); conditions: NAMPT biochemical inhibition; read-out: Biochem IC50
A2780 cells = test: In-vitro cell proliferation assay (SRB), A2780 cells; format: cell-based; conditions: A2780 cells, 72 hours, SRB, read-out: A2780 IC50;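 note: viable cell number read as SRB absorbance, background from media-only wells subtracted, IC50 interpolated from percent inhibition at two bracketing compound concentrations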

Sequence of NAMPT (P43490 whole entry): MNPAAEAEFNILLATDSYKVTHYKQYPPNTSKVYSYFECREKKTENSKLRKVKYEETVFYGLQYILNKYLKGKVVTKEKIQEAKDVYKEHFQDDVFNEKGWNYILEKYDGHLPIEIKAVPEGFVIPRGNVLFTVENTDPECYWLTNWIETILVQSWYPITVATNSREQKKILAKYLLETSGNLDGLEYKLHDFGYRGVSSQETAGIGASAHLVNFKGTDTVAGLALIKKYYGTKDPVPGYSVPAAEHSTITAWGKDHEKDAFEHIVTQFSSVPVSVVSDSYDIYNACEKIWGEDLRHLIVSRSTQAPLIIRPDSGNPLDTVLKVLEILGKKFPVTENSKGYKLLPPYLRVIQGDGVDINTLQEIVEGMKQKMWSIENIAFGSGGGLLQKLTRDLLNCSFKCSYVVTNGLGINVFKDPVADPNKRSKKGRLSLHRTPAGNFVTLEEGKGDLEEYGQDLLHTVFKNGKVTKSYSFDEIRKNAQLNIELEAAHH

| IC50 (NAMPT) | IC50 (A2780 cells; Homo sapiens, A2780, 72 h) | SMILES | IC50 (A2780 cells) |
| --- | --- | --- | --- |
| 22 nM | 130 nM | COCC1CCN(S(=O)(=O)c2ccc(NC(=O)NCc3cccnc3)cc2)CC1 [3-{4-[4-(methoxymethyl)piperidine-1-sulfonyl]phenyl}-1-(pyridin-3-ylmethyl)urea] | – |
| 1 nM | 238 nM | O=C(NCc1cccnc1)Nc1ccc(S(=O)(=O)c2cccc(F)c2)cc1 [3-{4-[(3-fluorobenzene)sulfonyl]phenyl}-1-(pyridin-3-ylmethyl)urea] | – |
| 2 nM | 28.2 nM | COc1cc(F)ccc1S(=O)(=O)c1ccc(NC(=O)NCc2cccnc2)cc1 [3-{4-[(4-fluoro-2-methoxybenzene)sulfonyl]phenyl}-1-(pyridin-3-ylmethyl)urea] | – |
| 2.9 nM | 100 to 1000 nM | O=C(NCc1cccnc1)Nc1ccc(S(=O)(=O)c2ccc(Cl)c(Cl)c2)cc1 [3-{4-[(3,4-dichlorobenzene)sulfonyl]phenyl}-1-(pyridin-3-ylmethyl)urea] | – |
| 20500 nM | 1550 nM | O=C(NCCc1cccnc1)c1ccc(S(=O)(=O)Nc2cccc(OC(F)(F)F)c2)cc1 [N-[2-(pyridin-3-yl)ethyl]-4-{[3-(trifluoromethoxy)phenyl]sulfamoyl[benzamide] | – |
| 3 nM | 284 nM | O=C(NCc1cccnc1)Nc1ccc(S(=O)(=O)c2cc(F)cc(F)c2)cc1 [3-{4-[(3,5-difluorobenzene)sulfonyl]phenyl}-1-(pyridin-3-ylmethyl)urea] | – |
| 2 nM | 24 nM | O=C(NCc1cccnc1)Nc1ccc(S(=O)(=O)Nc2ccccc2Br)cc1 [3-{4-[(2-bromophenyl)sulfamoyl]phenyl}-1-(pyridin-3-ylmethyl)urea] | – |
| 4 nM | 157 nM | CCOc1ccc(NS(=O)(=O)c2ccc(NC(=O)NCc3cccnc3)cc2)c(F)c1 [3-{4-[(4-ethoxy-2-fluorophenyl)sulfamoyl]phenyl}-1-(pyridin-3-ylmethyl)urea] | – |
| 2.1 nM | 100 to 1000 nM | CC(=O)c1cccc(S(=O)(=O)c2ccc(NC(=O)NCc3cccnc3)cc2)c1 [3-{4-[(3-acetylbenzene)sulfonyl]phenyl}-1-(pyridin-3-ylmethyl)urea] | – |
| 9 nM | 164 nM | CN(C)C(=O)C1CCN(S(=O)(=O)c2ccc(NC(=O)NCc3cccnc3)cc2)CC1 [N,N-dimethyl-1-[(4-{[(pyridin-3-ylmethyl)carbamoyl]amino}benzene)sulfonyl]piperidine-4-carboxamide] | – |
| 48 nM | 18000 nM | O=C(NCc1cncc(Cl)c1)Nc1ccc(S(=O)(=O)N2CCCCC2)cc1 [3-[(5-chloropyridin-3-yl)methyl]-1-[4-(piperidine-1-sulfonyl)phenyl]urea] | – |
| 7 nM | 116 nM | COc1cc(F)ccc1NS(=O)(=O)c1ccc(NC(=O)NCc2cccnc2)cc1 [3-{4-[(4-fluoro-2-methoxyphenyl)sulfamoyl]phenyl}-1-(pyridin-3-ylmethyl)urea] | – |
| 7 nM | 164 nM | C[C@H](O)c1cccc(NS(=O)(=O)c2ccc(NC(=O)NCc3cccnc3)cc2)c1 [3-[4-({3-[(1S)-1-hydroxyethyl]phenyl}sulfamoyl)phenyl]-1-(pyridin-3-ylmethyl)urea] | – |
| 3 nM | 383 nM | Cc1ccc(S(=O)(=O)c2ccc(NC(=O)NCc3cccnc3)cc2)s1 [3-[4-(5-methylthiophene-2-sulfonyl)phenyl]-1-(pyridin-3-ylmethyl)urea] | – |
| 1.3 nM | 58.5 nM | CCCOc1ccc(S(=O)(=O)c2ccc(NC(=O)NCc3cccnc3)cc2)cc1F [3-{4-[(3-fluoro-4-propoxybenzene)sulfonyl]phenyl}-1-(pyridin-3-ylmethyl)urea] | – |
| 3 nM | 109 nM | COc1ccc(NS(=O)(=O)c2ccc(NC(=O)NCc3cccnc3)cc2)c(OC)c1 [3-{4-[(2,4-dimethoxyphenyl)sulfamoyl]phenyl}-1-(pyridin-3-ylmethyl)urea] | – |

The remaining lines, values behind:

| SMILES | IC50 (NAMPT) | IC50 (A2780 cells; Homo sapiens, A2780, 72 h) | IC50 (A2780 cells) |
| --- | --- | --- | --- |
| O=C(NCc1cccnc1)Nc1ccc(S(=O)(=O)c2ccc3c(c2)OCCO3)cc1 [1-[4-(2,3-dihydro-1,4-benzodioxine-6-sulfonyl)phenyl]-3-(pyridin-3-ylmethyl)urea] | 1.1 nM | 100 to 1000 nM | – |
| O=C(NCc1cccnc1)Nc1ccc(S(=O)(=O)c2cccnc2)cc1 [3-(pyridin-3-ylmethyl)-1-[4-(pyridine-3-sulfonyl)phenyl]urea] | 5 nM | 595 nM | – |
| CCN(CC)C(=O)c1ccc(F)c(S(=O)(=O)c2ccc(NC(=O)NCc3cccnc3)cc2)c1 [N,N-diethyl-4-fluoro-3-[(4-{[(pyridin-3-ylmethyl)carbamoyl]amino[benzene)sulfonyl]benzamide] | 2.4 nM | – | 88.5 nM |
| O=C(NCc1cccnc1)Nc1ccc(S(=O)(=O)c2cc(F)cc(C(F)(F)F)c2)cc1 [3-(4-{[3-fluoro-5-(trifluoromethyl)benzene]sulfonyl[phenyl)-1-(pyridin-3-ylmethyl)urea] | 0.7 nM | – | 57.6 nM |
| CCN(CC)C(=O)c1cc(F)cc(S(=O)(=O)c2ccc(NC(=O)NCc3cccnc3)cc2)c1 [N,N-diethyl-3-fluoro-5-[(4-{[(pyridin-3-ylmethyl)carbamoyl]amino[benzene)sulfonyl]benzamide] | 1.2 nM | – | 1.5 nM |
| Cn1ncc2cc(S(=O)(=O)c3ccc(NC(=O)NCc4cccnc4)cc3)ccc21 [3-[4-(1-methyl-1H-indazole-5-sulfonyl)phenyl]-1-(pyridin-3-ylmethyl)urea] | 1.8 nM | 92.5 nM | – |
| O=C(NCc1cccnc1)Nc1ccc(S(=O)(=O)c2ccc(C(F)(F)F)nc2)cc1 [1-(pyridin-3-ylmethyl)-3-{4-[6-(trifluoromethyl)pyridine-3-sulfonyl]phenyl}urea] | 27.9 nM | 1000 to 10000 nM | – |
| O=C(NCc1cccnc1)Nc1ccc(S(=O)(=O)c2cncc(Cl)c2)cc1 [3-[4-(5-chloropyridine-3-sulfonyl)phenyl]-1-(pyridin-3-ylmethyl)urea] | 2.6 nM | 98.2 nM | – |
| O=C(NCc1cccnc1)Nc1ccc(S(=O)(=O)C2CCCC2)cc1 [1-[4-(cyclopentanesulfonyl)phenyl]-3-(pyridin-3-ylmethyl)urea] | 43 nM | 1860 nM | – |
| O=C(NCc1cccnc1)Nc1ccc(S(=O)(=O)c2cc(Cl)cc(C(F)(F)F)c2)cc1 [3-(4-{[3-chloro-5-(trifluoromethyl)benzene]sulfonyl}phenyl)-1-(pyridin-3-ylmethyl)urea] | 1.3 nM | 25.5 nM | – |
| O=C(NCc1cccnc1)Nc1ccc(S(=O)(=O)c2cccc3c2OCC3)cc1 [1-[4-(2,3-dihydro-1-benzofuran-7-sulfonyl)phenyl]-3-(pyridin-3-ylmethyl)urea] | 1.1 nM | 10.5 nM | – |
| CN1CCCC2(CCCN(S(=O)(=O)c3ccc(NC(=O)NCc4cccnc4)cc3)C2)C1 (stereo not drawn) [3-(4-{8-methyl-2,8-diazaspiro[5.5]undecane-2-sulfonyl}phenyl)-1-(pyridin-3-ylmethyl)urea] | 1 nM | 1 nM | – |
| O=C(NCc1cccnc1)Nc1ccc(S(=O)(=O)N2CCN(CCCN3CCOCC3)CC2)cc1 [1-(4-{4-[3-(morpholin-4-yl)propyl]piperazine-1-sulfonyl}phenyl)-3-(pyridin-3-ylmethyl)urea] | 3 nM | 24 nM | – |
| O=C(NCc1cccnc1)Nc1ccc(S(=O)(=O)N2Cc3cccc4cccc(c34)C2)cc1 [1-(4-{3-azatricyclo[7.3.1.0^5,^13]trideca-1(13),5,7,9,11-pentaene-3-sulfonyl}phenyl)-3-(pyridin-3-ylmethyl)urea] | 2 nM | – | 26 nM |
